Measurements as given in patent US20250312258A1, “2,3-PYRROLIDINEDIONE CONJUGATES AND METHODS OF USING THEREOF” (North Carolina State University, priority 2022, published 2025).
Values after ≈ are worked out from the molar mass of the structure shown. Read-outs that look alike come from different tables or passages of the source.

Legend:
S. pneumoniae = test: MIC against S. pneumoniae strain panel; type: cell-based; settings: Streptococcus pneumoniae, read-out: MIC
MRSA 33591 = test: Broth microdilution MIC, MRSA 33591; type: cell-based; settings: Staphylococcus aureus, read-out: MIC (MRSA 33591)
MRSA = test: MIC against MRSA strain panel; type: cell-based; settings: Staphylococcus aureus, the 4th table, read-out: MIC
VRSA = test: MIC against VRSA (Table 2); type: cell-based; settings: Staphylococcus aureus, read-out: MIC (VRSA)
Group B Strep = test: MIC against Group B Strep strain panel; type: cell-based; settings: read-out: MIC
S. aureus 25923 = test: Broth microdilution MIC, S. aureus 25923; type: cell-based, Staphylococcus aureus; settings: Staphylococcus aureus, 25923; read-out: MIC (S. aureus 25923)
S. aureus 29213 = test: Broth microdilution MIC, S. aureus 29213; type: cell-based, Staphylococcus aureus; settings: Staphylococcus aureus
ATCC 29212 E. faecalis = test: MIC against ATCC 29212 E. faecalis; type: cell-based; settings: Enterococcus faecalis, ATCC29212, ATCC 29212 E. faecalis, read-out: MIC
Group A Strep = test: MIC against Group A Strep strain panel; type: cell-based; settings: read-out: MIC

MIC (S. pneumoniae; CT4-9693 S. pneumoniae, the 7th table): 0.25 µg/mL (≈ 0.605 µM)
MIC (S. pneumoniae; CT5-6541 S. pneumoniae, the 7th table): 0.25 µg/mL (≈ 0.605 µM)
MIC (S. pneumoniae; CT5-8032 S. pneumoniae, the 7th table): 0.25 µg/mL (≈ 0.605 µM)
MIC (S. pneumoniae; CT5-9124 S. pneumoniae, the 7th table): 0.25 µg/mL (≈ 0.605 µM)
MIC (S. pneumoniae; CT6-0670 S. pneumoniae, the 7th table): 0.25 µg/mL (≈ 0.605 µM)
MIC (S. pneumoniae; CT6-7691 S. pneumoniae, the 7th table): 0.25 µg/mL (≈ 0.605 µM)
MIC (S. pneumoniae; CT0200-2241 S. pneumoniae, the 7th table): 0.25 µg/mL (≈ 0.605 µM)
MIC (S. pneumoniae; CT0200-2730 S. pneumoniae, the 7th table): 0.5 µg/mL (≈ 1.21 µM)
MIC (S. pneumoniae; MD77773 S. pneumoniae, CA-MHB w/5% LHB, the 4th table): 0.25 µg/mL (≈ 0.605 µM)
MIC (MRSA 33591): 0.5 µg/mL (≈ 1.21 µM)
MIC (MRSA; 6215 MRSA): 1 µg/mL (≈ 2.42 µM)
MIC (MRSA; 6217 MRSA): 0.5 µg/mL (≈ 1.21 µM)
MIC (MRSA; 6218 MRSA): 1 µg/mL (≈ 2.42 µM)
MIC (MRSA; 6220 MRSA): 1 µg/mL (≈ 2.42 µM)
MIC (MRSA; 6231 MRSA): 0.5 µg/mL (≈ 1.21 µM)
MIC (MRSA; AR-978 MRSA): 1 µg/mL (≈ 2.42 µM)
MIC (MRSA; AR-979 MRSA): 0.5 µg/mL (≈ 1.21 µM)
MIC (MRSA; AR-993 MRSA): 1 µg/mL (≈ 2.42 µM)
MIC (MRSA; AR-997 MRSA): 1 µg/mL (≈ 2.42 µM)
MIC (VRSA): 2 µg/mL (≈ 4.84 µM)
MIC (Group B Strep; 2008-57 Group B Strep, the 9th table): 0.25 µg/mL (≈ 0.605 µM)
MIC (Group B Strep; 2008-70 Group B Strep, the 9th table): ≤ 0.125 µg/mL
MIC (Group B Strep; 2008-87 Group B Strep, CA-MHB w/5% LHB, the 4th table): 0.25 µg/mL (≈ 0.605 µM)
MIC (Group B Strep; 2008-115 Group B Strep, the 9th table): 0.25 µg/mL (≈ 0.605 µM)
MIC (Group B Strep; 2009-20 Group B Strep, the 9th table): 0.25 µg/mL (≈ 0.605 µM)
MIC (Group B Strep; 2009-40 Group B Strep, the 9th table): 0.25 µg/mL (≈ 0.605 µM)
MIC (Group B Strep; 2009-43 Group B Strep, the 9th table): ≤ 0.125 µg/mL
MIC (Group B Strep; 2009-51 Group B Strep, the 9th table): ≤ 0.125 µg/mL
MIC (Group B Strep; 2009-57 Group B Strep, the 9th table): 0.25 µg/mL (≈ 0.605 µM)
MIC (Group B Strep; 2009-59 Group B Strep, the 9th table): 0.25 µg/mL (≈ 0.605 µM)
MIC (Group B Strep; 2009-60 Group B Strep, the 9th table): 0.25 µg/mL (≈ 0.605 µM)
MIC (Group B Strep; 2009-61 Group B Strep, CA-MHB w/5% LHB, the 4th table): 0.25 µg/mL (≈ 0.605 µM)
MIC (Group B Strep; 2009-62 Group B Strep, CA-MHB w/5% LHB, the 4th table): ≤ 0.125 µg/mL
MIC (Group B Strep; J4182 Group B Strep, the 9th table): ≤ 0.125 µg/mL
MIC (Group B Strep; J4183 Group B Strep, the 9th table): 0.25 µg/mL (≈ 0.605 µM)
MIC (Group B Strep; J4185 Group B Strep, the 9th table): 0.25 µg/mL (≈ 0.605 µM)
MIC (Group B Strep; J4186 Group B Strep, the 9th table): 0.25 µg/mL (≈ 0.605 µM)
MIC (Group B Strep; J4222 Group B Strep, the 9th table): 0.25 µg/mL (≈ 0.605 µM)
MIC (S. aureus 25923): 0.25 µg/mL (≈ 0.605 µM)
MIC (S. aureus 29213; 29213, read-out: MIC (S. aureus 29213)): 0.25 to 0.5 µg/mL (≈ 0.605 to 1.21 µM)
MIC (S. aureus 29213; ATCC 29213 / MRSA, ATCC 29213 MRSA, the 4th table, read-out: MIC): 1 µg/mL (≈ 2.42 µM)
MIC (S. aureus 29213; ATCC 29213 / MRSA, ATCC 29213 MRSA, the 5th table, read-out: MIC): 1 µg/mL (≈ 2.42 µM)
MIC (ATCC 29212 E. faecalis; the 4th table): 1 µg/mL (≈ 2.42 µM)
MIC (ATCC 29212 E. faecalis; the 6th table): 4 µg/mL (≈ 9.67 µM)
MIC (Group A Strep; 2007-11 Group A Strep, the 8th table): 0.25 µg/mL (≈ 0.605 µM)
MIC (Group A Strep; 2007-28 Group A Strep, the 8th table): < 0.125 µg/mL
MIC (Group A Strep; 2007-49 Group A Strep, the 8th table): ≤ 0.125 µg/mL
MIC (Group A Strep; 2007-73 Group A Strep, the 8th table): ≤ 0.125 µg/mL
MIC (Group A Strep; 2007-107 Group A Strep, the 8th table): 0.25 µg/mL (≈ 0.605 µM)
MIC (Group A Strep; 2007-1101 Group A Strep, the 8th table): ≤ 0.125 µg/mL
MIC (Group A Strep; 2008-06 Group A Strep, the 8th table): ≤ 0.125 µg/mL
MIC (Group A Strep; 2008-45 Group A Strep, the 8th table): ≤ 0.125 µg/mL
MIC (Group A Strep; 2008-818 Group A Strep, CA-MHB w/5% LHB, the 4th table): ≤ 0.125 µg/mL
MIC (Group A Strep; 2008-1565 Group A Strep, the 8th table): 0.25 µg/mL (≈ 0.605 µM)
MIC (Group A Strep; 2008-1692 Group A Strep, the 8th table): 0.25 µg/mL (≈ 0.605 µM)
MIC (Group A Strep; 2008-1732 Group A Strep, CA-MHB w/5% LHB, the 4th table): ≤ 0.125 µg/mL
MIC (Group A Strep; 2009-8 Group A Strep, the 8th table): 0.25 µg/mL (≈ 0.605 µM)
MIC (Group A Strep; 2009-37 Group A Strep, CA-MHB w/5% LHB, the 4th table): ≤ 0.125 µg/mL
MIC (Group A Strep; 2009-106 Group A Strep, the 8th table): 0.25 µg/mL (≈ 0.605 µM)
MIC (Group A Strep; 2009-109 Group A Strep, the 8th table): ≤ 0.125 µg/mL
MIC (Group A Strep; 2009-114 Group A Strep, the 8th table): 0.25 µg/mL (≈ 0.605 µM)
MIC (Group A Strep; 2009-136 Group A Strep, the 8th table): ≤ 0.125 µg/mL
SMILES: CCC1C(c2ccc(C(F)(F)F)cc2)=C(O)C(=O)N1CCCNCCCCNC (centres unmarked) [Compound 8]
